# Source: article PMC11360180, “Enhancement of Antimicrobial Function by L/D-Lysine Substitution on a Novel Broad-Spectrum Antimicrobial Peptide, Phylloseptin-TO2: A Structure-Related Activity Research Study” (Pharmaceutics, 2024)
# Where “and” joins values, the source holds several entries; their conditions need not be identical. Identical values can stand only once. Like-named read-outs stand apart in the source and are kept apart here. Where a SMILES comes first, the peptide text is derived from it. Where no end group is shown, it is not given here. [ ]: non-standard residue; d: D form.
# Experiments:
# S. aureus (ATCC 6538) = assay type: cell-based, Staphylococcus aureus
# Description: (§1) Seven microorganism strains were used to preliminarily evaluate the antimicrobial activity of PSTO2 and its analogues, including Staphylococcus aureus (S. aureus) (ATCC® 6538), methicillin-resistant Staphylococcus aureus (MRSA) (NCTC® 12493), Enterococcus faecalis (E. faecalis) (NCTC® 12697), E. coli (ATCC® 8739), Klebsiella pneumonia (K. pneumonia) (ATCC® 43816), Pseudomonas aeruginosa (P. aeruginosa) (ATCC® CRM 9027), Acinetobacter baumanni (A. baumanni) (BAA® 747), and Candida albicans (C. albicans) (ATCC® 10231). In this study, the strains were cultured in Mueller–Hinton broth (MHB), nutrient broth (NB), and yeast–peptone–dextrose broth (YPD-B) correspondingly at 37 °C, with shaking at 120 rpm. Each peptide was dissolved from 128 μM to 1 μM and mixed with the bacterium at 5 × 10^5 CFU/mL. In this process, bacteria with culture medium were used as the growth control group; PBS was set up as the vehicle control group; sterile culture medium was used as the blank control group; and Norfloxacin at a concentration of 2 mg/mL and amphotericin B at a concentration of 1 mg/mL were set up as the positive control group for bacteria and fungi, respectively.
# (§2) After being incubated for 24 h, a Synergy HT plate reader (Bio-Tek, Shoreline, WA, USA) was used to detect the absorbance of each well in the 96-well plate at λ = 550 nm. The concentration at which no visible turbidity could be recorded was the MIC value. Beginning from the MIC value, 10 µL of solution in each clear well was dropped on the sterile agar plates. The plate was checked the next day for colony formation, and the lowest concentration at which no colony growing was recorded as an MBC value.
# MRSA (NCTC 12493) = assay type: cell-based, methicillin-resistant Staphylococcus aureus
# Description: as §1, §2
# E. coli (ATCC 8739) = assay type: cell-based, Escherichia coli
# Description: as §1, §2
# [1] = tested on: K. pneumonia (ATCC 43816); assay type: cell-based, Klebsiella pneumonia
# Description: as §1, §2
# [2] = tested on: P. aeruginosa (ATCC 9027); assay type: cell-based, Pseudomonas aeruginosa
# Description: as §1, §2
# A. baumannii (BAA 747) = assay type: cell-based, Acinetobacter baumanni; conditions: BAA 747, 24 h
# Description: as §1, §2
# C. albicans = assay type: cell-based, Candida albicans; conditions: 24 h
# Description: as §1, §2
# horse red blood cells = assay type: cell-based
# Description: To assess the haemolytic activity of PSTO2 and its analogues, 2% fresh defibrinated horse red blood cells (TCS Biosciences Ltd., Buckingham, UK) were acquired after being washed and resuspended in sterile PBS. Each peptide was dissolved in PBS to prepare solutions with concentrations ranging from 2 µM to 1024 µM. Subsequently, 100 µL of each peptide solution was mixed with 100 µL of the red blood cell suspension. The red blood cells treated with 1% triton X-100 and sterile PBS in equivalent volumes were set up as the positive and negative control groups, respectively. Then, all the samples were incubated at 37 °C for 2 h. Thereafter, the samples were centrifuged at 900× g for 10 min. Finally, 100 µL of supernatant of each sample was transferred into a 96-well plate, and the absorbance was recorded by a Synergy HT plate reader (Bio-Tek, Shoreline, WA, USA) at a wavelength of 570. The following equation was used to calculate haemolysis activity:Haemolysis activity = (Sample absorbance − Ab)/(Ap − Ab) × 100% where Ab refers to the mean value of absorbance of the negative control (incubated with PBS only), and Ap refers to the mean absorbance value of the positive control (incubated with triton X-100).
# [3] = tested on: S. aureus (ATCC 6538) biofilm; assay type: cell-based, Staphylococcus aureus; conditions: ATCC 6538, 24 h
# Description: (§3) To test the anti-biofilm ability of PSTO2 and its analogues, three types of microorganisms (S. aureus ATCC® 6538, E. coli ATCC® 8739, and MRSA NCTC® 12493) were chosen. Tryptic soy broth (TSB) and Lysogeny broth (LB) were used to culture microorganisms. The peptide was dissolved in an autoclaved PBS solution and diluted into concentrations ranging from 51,200 µM to 100 µM. One µL of peptide solution of each concentration was added into a 96-well plate with 100 µL bacterium at 5 × 10^5 CFU/mL. The plate was incubated at 37 °C for 24 h, with shaking at 200 rpm. After overnight incubation, the planktonic bacteria were washed up. Then, 100 µL of methanol was used to fix the biofilms onto the bottom, and 100 µL of 0.1% crystal violet solution (Sigma-Aldrich, Gillingham, UK) was added to each well to stain the biofilms. After drying, 160 µL of acetic acid (30% in deionised water, Sigma-Aldrich, UK) was added to each well to dissolve the shaded parts. The absorbance was detected with the Synergy HT plate reader at λ = 595 nm.
# (§4) For the MBEC assay, 100 µL of the bacterium of 5 × 10^5 CFU/mL was transferred into an empty 96-well plate, and the plate was incubated at 37 °C for 24 h to obtain the biofilms primarily. Then, the peptide solution from 512 µM to 1 µM was transferred into a corresponding well, followed by 24 h incubation at 37 °C, with shaking at 200 rpm. After this, the plate was handled using the identical method to the plate in the MBIC assay, and the absorbance of each well was detected with the Synergy HT plate reader at λ = 595 nm. The minimum concentration at which the peptide can eradicate the existing biofilm was recorded as the MBEC value.
# [4] = tested on: MRSA (ATCC 12493) biofilm; assay type: cell-based, methicillin-resistant Staphylococcus aureus; conditions: ATCC 12493, 24 h
# Description: as §3, §4
# [5] = tested on: E. coli (ATCC 8739) biofilm; assay type: cell-based, Escherichia coli; conditions: ATCC 8739, 24 h
# Description: as §3, §4
# [6] = clear wells plated on agar, no colony
Compound,"MBC (S. aureus (ATCC 6538); ATCC 6538, 24 h) [µM]","MIC (S. aureus (ATCC 6538); ATCC 6538, 24 h) [µM]","MBC (MRSA (NCTC 12493); NCTC 12493, 24 h) [µM]","MIC (MRSA (NCTC 12493); NCTC 12493, 24 h) [µM]","MBC (E. coli (ATCC 8739); ATCC 8739, 24 h)","MIC (E. coli (ATCC 8739); ATCC 8739, 24 h) [µM]",MBC (A. baumannii (BAA 747)),MIC (A. baumannii (BAA 747)) [µM],"MBC ([1]; ATCC 43816, 24 h)","MIC ([1]; ATCC 43816, 24 h) [µM]","MBC ([2]; ATCC 9027, 24 h) [µM]","MIC ([2]; ATCC 9027, 24 h) [µM]",MBC (C. albicans) [µM],MIC (C. albicans) [µM],HC10 (horse red blood cells),MBEC [3] [µM],MBIC [3] [µM],MBEC [4] [µM],MBIC [4] [µM],MBEC [5] [µM],other results
"CC[C@H](C)[C@H](NC(=O)CN)C(=O)NCC(=O)N[C@@H](C)C(=O)N[C@H](C(=O)N[C@@H](CC(C)C)C(=O)N[C@@H](CCCCN)C(=O)N[C@H](C(=O)N[C@@H](CC(C)C)C(=O)N[C@H](C(=O)N[C@H](C(=O)NCC(=O)N[C@@H](CC(C)C)C(=O)N1CCC[C@H]1C(=O)N[C@@H](C)C(=O)N[C@@H](CC(C)C)C(=O)N[C@H](C(=O)N[C@@H](CO)C(=O)N[C@@H](Cc1c[nH]c2ccccc12)C(=O)N[C@H](C(=O)N[C@@H](CCCCN)C(=O)N[C@@H](CCCNC(=N)N)C(=O)N[C@@H](CCCCN)C(=O)N[C@@H](CCCNC(=N)N)C(=O)N[C@@H](CCC(N)=O)C(=O)N[C@@H](CCC(N)=O)C(N)=O)[C@@H](C)CC)[C@@H](C)CC)[C@@H](C)O)[C@@H](C)O)C(C)C)C(C)C [Mellitin, melittin, reference compound]",–,–,–,–,–,–,–,–,–,–,–,–,–,–,–,–,–,–,–,–,"MBC (S. aureus (ATCC 6538); [6]): 5.7 µg/mL and 2 µM; MBC (MRSA (NCTC 12493); [6]): 2 µM; MBC (E. coli (ATCC 8739); [6]): 4 µM; MIC ([1]; 5 × 10^5 CFU/mL, 24 h, absorbance 550 nm): 32 µM; MBC [1, 6]: 32 µM; MBC [2, 6]: 32 µM"
CC[C@H](C)[C@H](NC(=O)[C@H](C)NC(=O)[C@@H](CCCCN)NC(=O)[C@@H]1CCCN1C(=O)[C@@H](NC(=O)[C@H](CC(C)C)NC(=O)[C@H](CO)NC(=O)[C@H](CC(C)C)NC(=O)[C@@H](N)Cc1ccccc1)[C@@H](C)CC)C(=O)N[C@H](CCCCN)C(=O)N[C@@H](C)C(=O)N[C@H](C(=O)N[C@@H](CO)C(=O)N[C@@H](C)C(=O)N[C@@H](CC(C)C)C(=O)N[C@@H](C)C(=O)N[C@@H](CCCCN)C(=O)N[C@H](CCCCN)C(=O)N[C@@H](CC(C)C)C(N)=O)C(C)C [Peptide D1] (H-FLSLIP[dK]AI[dK]AVSALAK[dK]L-NH2),>128,>128,>128,>128,32 µM,32,32 µM,32,128 µM,128,32,32,>128,>128,Not significant,–,–,–,–,–,–
CC[C@H](C)[C@H](NC(=O)[C@H](C)NC(=O)[C@@H](CCCCN)NC(=O)[C@@H]1CCCN1C(=O)[C@@H](NC(=O)[C@H](CC(C)C)NC(=O)[C@H](CO)NC(=O)[C@H](CC(C)C)NC(=O)[C@@H](N)Cc1ccccc1)[C@@H](C)CC)C(=O)N[C@H](CCCCN)C(=O)N[C@@H](C)C(=O)N[C@H](C(=O)N[C@H](CCCCN)C(=O)N[C@@H](C)C(=O)N[C@@H](CC(C)C)C(=O)N[C@@H](C)C(=O)N[C@H](CCCCN)C(=O)N[C@H](CCCCN)C(=O)N[C@@H](CC(C)C)C(N)=O)C(C)C [Peptide D2] (H-FLSLIP[dK]AI[dK]AV[dK]ALA[dK][dK]L-NH2),>128,>128,>128,>128,32 µM,16,16 µM,16,128 µM,128,16,16,>128,>128,Not significant,–,–,–,–,–,–
FLSLIPKAISAVSALAKHL-NH2 [Peptide 7K],4,4,8,4,8 µM,8,>128 µM,>128,8/8 μM,–,32,32,64,32,21.97,32,16,32,4,64,MBIC [5]: 16 µM
FLSLIPKAISAVSALAKKL-NH2 [Peptide 18K],4,2,4,4,4/4 μM,–,32/32 μM,–,16/16 μM,–,64,32,128,32,20.59,32,8,32,4,64,MBIC [5]: 32 µM
